Test results reported in the supplement of paper PMC10702517.
± gives the standard deviation.

Assays:
[1] = chemical recovery from spiked human plasma; higher = better extraction; conditions: pooled human plasma
[2] = chemical recovery into PDMS from spiked human plasma; higher = better extraction; conditions: pooled human plasma, extraction method: PES with PDMS
[3] = chemical recovery by SPE of plasma after PDMS sampling; higher = better extraction; conditions: pooled human plasma, extraction method: HLB SPE of plasma after PES
[4] = extraction method: SPE only (HLB 96-well), PES comparison experiment
[5] = extraction method: SPE only (HLB 96-well)
[6] = extraction method: solvent precipitation (ACN + hexane)
[7] = extraction method: PES+SPE (3 d PDMS equilibration then HLB SPE)
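Wherever chemical recovery by SPE of plasma after PDMS sampling is given: over 400 spiked chemicals quantified by LC-HRMS or GC-HRMS via internal standard calibration, recovery relative to spike mix added to unspiked plasma extract to correct matrix effects.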

SMILES	chemical recovery [1, 4] [%]	chemical recovery into PDMS ([2]; equilibration time (d): 1) [%]	chemical recovery by SPE of plasma ([3]; equilibration time (d): 3) [%]	chemical recovery [1, 6] [%]	chemical recovery by SPE of plasma ([3]; equilibration time (d): 6) [%]	chemical recovery into PDMS ([2]; equilibration time (d): 3) [%]	chemical recovery into PDMS ([2]; equilibration time (d): 6) [%]	chemical recovery by SPE of plasma ([3]; equilibration time (d): 1) [%]	chemical recovery [1, 5] [%]	chemical recovery [1, 7] [%]
CC(=O)OCC(=O)[C@@]12OC3(CCCC3)O[C@@H]1C[C@H]1[C@@H]3CCC4=CC(=O)C=C[C@]4(C)[C@@]3(F)[C@@H](O)C[C@@]12C [Amcinonide]	39.5 ± 7.4	35.6 ± 2.6	1.48 ± 2.6			38.1 ± 2.4	35.6 ± 2.7	1.91 ± 3.3		
CCNc1nc(NC(C)C)nc(SC)n1 [Ametryn]	44.1 ± 4.6	13.2 ± 4.9	9.36 ± 2	72.1 ± 3.1	4.74 ± 0.84	20.6 ± 7.4	23.9 ± 3.2	24.3 ± 4.5	41.6 ± 3.1	
Nc1ccc(/N=N/c2ccccc2)cc1 [Aniline Yellow]	28.9 ± 4.3	12.3 ± 4.1	7.55 ± 0.93		5.19 ± 0.91	10.4 ± 4.8	11.3 ± 3	6.65 ± 1.6		
CCNc1nc(Cl)nc(NC(C)C)n1 [Atrazine]	50.6 ± 6.8	34.5 ± 1.7	4.12 ± 0.74	62.9 ± 5.5	2.39 ± 0.2	39.1 ± 2.9	39.4 ± 0.96	6.06 ± 0.65	41.5 ± 2.1	43.7 ± 5.2
c1ccc(/N=N/c2ccccc2)cc1 [Azobenzene]	8.55 ± 2.6	26.2 ± 3.9	0.401 ± 0.35		0.284 ± 0.25	28.4 ± 5.6	27.9 ± 4	0.184 ± 0.32		
CO/C=C(/C(=O)OC)c1ccccc1Oc1cc(Oc2ccccc2C#N)ncn1 [Azoxystrobin]	51.9 ± 7.1	40.1 ± 1.9	3.88 ± 0.44	75.6 ± 3.4	2.15 ± 0.22	43.9 ± 3.2	43 ± 0.52	5.12 ± 0.84	46.7 ± 1.1	46.6 ± 5.9
Brc1ccc(Oc2cc(Br)c(Br)cc2Br)c(Br)c1 [BDE99]				4.89 ± 0.2		99.1 ± 13	92.4 ± 7.2	1.13 ± 1.1	1.63 ± 0.65	53.9 ± 4.6
Brc1ccc(Oc2c(Br)cc(Br)cc2Br)c(Br)c1 [BDE100]			1.42 ± 0.25	7.72 ± 0.68	0.324 ± 0.56	99.1 ± 13	95.9 ± 6	2.2 ± 2	3.57 ± 1.4	67.4 ± 0.92
Brc1cc(Br)c(Oc2cc(Br)c(Br)cc2Br)cc1Br [BDE153]			2.62 ± 0.49	44.6 ± 2.3	1 ± 0.88	68.9 ± 6.3	71.7 ± 9.9	2.71 ± 2.5	6.21 ± 3.4	
Brc1cc(Br)c(Oc2cc(Br)c(Br)cc2Br)c(Br)c1 [BDE154]			1.94 ± 0.88	28.8 ± 2.3		67.2 ± 9.8	66.7 ± 20	1.62 ± 1.4		
CNC(=O)Oc1cccc2c1OC(C)(C)O2 [Bendiocarb]	45.4 ± 4.6	25.2 ± 0.81	26.5 ± 2.1	0.0898 ± 0.13	21.6 ± 1.7	20.4 ± 0.2	21.4 ± 0.87	20.4 ± 0.99	45.8 ± 1.5	35.9 ± 5.4
c1ccc2c(c1)Cc1cc3ccccc3cc1-2 [Benzo(b)fluorene]	17.5 ± 3.4		2.82 ± 0.45	69.1 ± 5.1	2.41 ± 0.48	107 ± 3.9	110 ± 13	1.71 ± 1.6	1.4 ± 0.48	57.9 ± 6.2
O=C(Nc1ccccc1-c1ccc(Cl)cc1)c1cccnc1Cl [Boscalid]	48.2 ± 7.4	41.6 ± 1.9	5.2 ± 0.48	81.6 ± 1.8	3.13 ± 0.17	45.5 ± 2.2	44.7 ± 0.64	4.82 ± 0.75	59.7 ± 2.4	63.9 ± 10

Further lines, with some results ahead:

chemical recovery [1, 4] [%]	chemical recovery into PDMS ([2]; equilibration time (d): 1) [%]	chemical recovery by SPE of plasma ([3]; equilibration time (d): 3) [%]	chemical recovery [1, 6] [%]	chemical recovery by SPE of plasma ([3]; equilibration time (d): 6) [%]	SMILES	chemical recovery into PDMS ([2]; equilibration time (d): 3) [%]	chemical recovery into PDMS ([2]; equilibration time (d): 6) [%]	chemical recovery by SPE of plasma ([3]; equilibration time (d): 1) [%]	chemical recovery [1, 5] [%]	chemical recovery [1, 7] [%]
	0.0444 ± 0.019	0.127 ± 0.05	106 ± 22		CCCCc1oc2ccccc2c1C(=O)c1cc(I)c(OCCN(CC)CC)c(I)c1 [Amiodarone]	0.131 ± 0.037	0.0473 ± 0.062	0.357 ± 0.17	37.9 ± 13	
44.1 ± 5.6	0.00525 ± 0.0045	0.14 ± 0.12	77.5 ± 5.1	0.0767 ± 0.067	CN(C)CCC=C1c2ccccc2CCc2ccccc21 [Amitriptyline]	0.0228 ± 0.034		0.152 ± 0.26	39.4 ± 10	0.236 ± 0.082
47.9 ± 3.9	34.8 ± 2.8	9.48 ± 1.3	69.1 ± 2.4	4.8 ± 0.57	CC(C)(C#N)c1cc(Cn2cncn2)cc(C(C)(C)C#N)c1 [Anastrozole]	39.8 ± 1.5	41.8 ± 2.5	14.8 ± 1.9	44.4 ± 1.8	51.4 ± 5.5
43.9 ± 6	0.00383 ± 0.0066	1.27 ± 0.31	64.8 ± 3.2	0.461 ± 0.41	CN1CCCC(n2nc(Cc3ccc(Cl)cc3)c3ccccc3c2=O)CC1 (stereo not given) [Azelastine]		0.00617 ± 0.0099	1.03 ± 0.14		
51.7 ± 3.9		50.4 ± 2	76.6 ± 5.2	45.9 ± 2.3	CO/C=C(/C(=O)O)c1ccccc1Oc1cc(Oc2ccccc2C#N)ncn1 [Azoxystrobin acid]	0.00158 ± 0.0027		46.8 ± 4.8		
8.52 ± 6	0.00847 ± 0.015	1.77 ± 0.98	80.7 ± 8.4	2.93 ± 1.1	O=S(=O)(O)c1ccccc1 [Benzenesulfonic acid]			3.18 ± 3.5	2.56 ± 1.3	1.83 ± 0.28
		3.78 ± 9.3	36 ± 1.5		c1ccc2c(c1)-c1cccc3c1c-2cc1ccccc13 [Benzo(b)fluoranthene]	93.1 ± 4.8	93.6 ± 18		0.807 ± 0.61	
	23.5 ± 1.9	18.4 ± 1.5	64.9 ± 4.3	14.4 ± 2.3	CCOC(=O)c1ccc(N)cc1 [Benzocain]	23.3 ± 1.7	26.3 ± 2.2	14.6 ± 2.6	39.3 ± 3.4	32.9 ± 5.6
33.1 ± 5.5	35.5 ± 1.5	1.88 ± 0.31	65 ± 3.6	1.41 ± 0.17	COc1ccc(C(=O)c2ccccc2)c(O)c1 [Benzophenone-3]	38.2 ± 2.1	38.6 ± 4.5	1.5 ± 0.48	28.9 ± 1.7	41.3 ± 8.9
41.7 ± 7.8	12.9 ± 1.3	26.8 ± 4.2		19.1 ± 4.2	CCCCC(=O)O[C@]1(C(=O)CO)[C@@H](C)C[C@H]2[C@@H]3CCC4=CC(=O)C=C[C@]4(C)[C@@]3(F)[C@@H](O)C[C@@]21C [Betamethasone-17-valerate]	18.8 ± 1.3	20.1 ± 1.2			
52.7 ± 4.8	0.000935 ± 0.0016	56.9 ± 2.6	74.9 ± 2.3	53.6 ± 2.6	CC(C)(Oc1ccc(CCNC(=O)c2ccc(Cl)cc2)cc1)C(=O)O [Bezafibrate]	0.00082 ± 0.0014		52.7 ± 6.2	45.5 ± 3.2	47.8 ± 3.6
46.6 ± 10	38.6 ± 3.1	0.479 ± 0.14		0.0513 ± 0.051	c1ccc(-c2ccc(C(c3ccccc3)n3ccnc3)cc2)cc1 (stereo not given) [Bifonazol]	38.5 ± 4.5	35.7 ± 4.3	0.932 ± 0.2		
47.4 ± 6.3	0.0185 ± 0.032	34.4 ± 3.7	70.7 ± 1.7	31.1 ± 2.7	CC(C)NCC(O)COc1ccc(COCCOC(C)C)cc1 (stereo not given) [Bisoprolol]			32.2 ± 3.3	42.2 ± 4	26.7 ± 3.1
